According to the supplement of paper PMC11061612:

How the values were obtained:
[1] = system: SK-ES-1 (Ewing's Sarcoma); assay: combination Emax (second highest fraction inhibited in the dose matrix, 72 h); higher = more inhibition; extreme values may be limits of the assay
Summary of the method: (§1)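 Cell lines grown in DMEM/F12 or RPMI with 10% FBS were plated in 1536-well plates and held 24 hours at 37°C, 5% CO2 before 72 hours of exposure to two-drug dose matrices, with DMSO typically at 0.2%. CellTiter-Glo 2.0 luminescence gave viability, which was converted to inhibition. Vehicle wells were set to 0 and blank wells to 1. Combination Emax is the second-highest inhibition in the matrix, and Bliss excess is the observed combination effect minus the expected EA + EB − EA·EB, where EA and EB are the single-agent effects.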

[2] = system: MDA-MB-361 (Breast Carcinoma); assay: as above
Summary of the method: as §1

[3] = system: KYSE-520 (Esophageal Squamous Cell Carcinoma); assay: as above
Summary of the method: as §1

[4] = system: DoTc2-4510 (Cervical Carcinoma); assay: as above
Summary of the method: as §1

[5] = system: ME-1 (Acute Myeloid Leukemia); assay: as above
Summary of the method: as §1

[6] = system: Calu-3 (Lung Adenocarcinoma); assay: as above
Summary of the method: as §1

[7] = system: HOS (Osteosarcoma); assay: as above
Summary of the method: as §1

[8] = system: MFE-296 (Endometrial Carcinoma); assay: as above
Summary of the method: as §1

[9] = system: HCC1806 (Breast Carcinoma); assay: as above
Summary of the method: as §1

[10] = system: NOS-1 (Osteosarcoma); assay: as above
Summary of the method: as §1

[11] = system: HCC-78 (Lung Adenocarcinoma); assay: as above
Summary of the method: as §1

[12] = system: TE-9 (Esophageal Squamous Cell Carcinoma); assay: as above
Summary of the method: as §1

[13] = system: LB831-BLC (Bladder Carcinoma); assay: as above
Summary of the method: as §1

[14] = system: KELLY (Neuroblastoma); assay: as above
Summary of the method: as §1

[15] = system: B-CPAP (Thyroid Gland Carcinoma); assay: Bliss excess, mean over the matrix (fraction); higher = more synergy
Summary of the method: as §1

[16] = system: Calu-3 (Lung Adenocarcinoma); assay: as above
Summary of the method: as §1

[17] = system: Daoy (Other Solid Carcinomas); assay: as above
Summary of the method: as §1

[18] = system: NOS-1 (Osteosarcoma); assay: as above
Summary of the method: as §1

[19] = system: HuP-T4 (Pancreatic Carcinoma); assay: as above
Summary of the method: as §1

[20] = system: KELLY (Neuroblastoma); assay: as above
Summary of the method: as §1
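Throughout, for Bliss excess, mean over the matrix: after 72 h of two-drug dosing.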

SMILES | combination Emax [1] | combination Emax [2] | combination Emax [3] | combination Emax [4] | combination Emax [5] | combination Emax [6] | combination Emax [7] | combination Emax [8] | combination Emax [9] | combination Emax [10] | combination Emax [11] | combination Emax [12] | combination Emax [13] | combination Emax [14] | Bliss excess [15] | Bliss excess [16] | Bliss excess [17] | Bliss excess [18] | Bliss excess [19] | Bliss excess [20]
Cc1cc2ncnn2cc1Nc1ncc2c(n1)n(C1CCOCC1)c(=O)n2C [AZD7648] + C=CCn1c(=O)c2cnc(Nc3ccc(N4CCN(C)CC4)cc3)nc2n1-c1cccc(C(C)(C)O)n1 [AZD1775] (first compound max 10 µM, partner max 1 µM) | 0.946 | 0.824 | 0.4 | 0.531 | 0.355 | 0.242 | 0.369 | 0.295 | 0.894 | 0.432 | 0.432 | 0.275 | 0.455 | 0.993 | -0.0273 | -0.0073 | 0.0018 | -0.0145 | 0.0417 | 0.015
Cc1cc2ncnn2cc1Nc1ncc2c(n1)n(C1CCOCC1)c(=O)n2C [AZD7648] + CCN(CCO)CCCOc1ccc2c(Nc3cc(CC(=O)Nc4cccc(F)c4)[nH]n3)ncnc2c1 [AZD2811] (first compound max 10 µM, 7x7, partner max 1 µM) | 0.964 | 0.61 | 0.337 | 0.301 | 0.27 | 0.235 | 0.273 | 0.147 | 0.281 | 0.232 | 0.342 | 0.234 | 0.258 | 0.692 | -0.0264 | 0.002 | 0.0083 | -0.0036 | 0.0254 | 0.0518
Cc1cc2ncnn2cc1Nc1ncc2c(n1)n(C1CCOCC1)c(=O)n2C [AZD7648] + CN(C)CCCOc1ccc(-c2ccc3ncc4c(c3c2)n(C2CCOCC2)c(=O)n4C)cn1 [AZD0156] (first compound max 10 µM, 7x7, partner max 1 µM) | 0.503 | 0.565 | 0.305 | 0.26 | 0.213 | 0.215 | 0.273 | 0.147 | 0.271 | 0.225 | 0.263 | 0.183 | 0.243 | 0.878 | -0.0206 | -0.0252 | 0.0614 | 0.0258 | 0.0393 | 0.0637
Cc1cc2ncnn2cc1Nc1ncc2c(n1)n(C1CCOCC1)c(=O)n2C [AZD7648] + C[C@@H]1COCCN1C2=NC(=NC(=C2)C3(CC3)[S@](=N)(=O)C)C4=C5C=CNC5=NC=C4 [AZD6738] (first compound max 10 µM, 7x7, partner max 10 µM) | 0.816 | 0.884 | 0.538 | 0.746 | 0.378 | 0.291 | 0.691 | 0.33 | 0.928 | 0.351 | 0.635 | 0.286 | 0.3 | 0.955 | -0.0649 | 0.0012 | 0.0328 | 0.0761 | 0.0353 | 0.0663
Cc1cc2ncnn2cc1Nc1ncc2c(n1)n(C1CCOCC1)c(=O)n2C [AZD7648] + O=C(c1cc(Cc2n[nH]c(=O)c3ccccc23)ccc1F)N1CCN(C(=O)C2CC2)CC1 [Olaparib] (first compound max 10 µM, 7x7, partner max 10 µM) | 0.923 | 0.406 | 0.234 | 0.277 | 0.172 | 0.0691 | 0.195 | 0.0811 | 0.142 | 0.0915 | 0.242 | 0.119 | 0.253 | 0.362 | -0.0034 | -0.0351 | -0.0102 | -0.0278 | -0.0432 | -0.0241
NC1(C(=O)N[C@@H](CCO)c2ccc(Cl)cc2)CCN(c2ncnc3[nH]ccc23)CC1 [Capivasertib] + CC(=O)c1c(C)c2cnc(Nc3ccc(N4CCNCC4)cn3)nc2n(C2CCCC2)c1=O [Palbociclib] (first compound max 10 µM, 7x7, partner max 10 µM) | 0.655 | 0.546 | 0.638 | 0.181 | 0.257 | 0.396 | 0.504 | 0.493 | 0.516 | 0.607 | 0.344 | 0.227 | 0.453 | 0.522 | -0.046 | 0.0775 | 0.0306 | -0.0389 | -0.0118 | 0.151
NC1(C(=O)N[C@@H](CCO)c2ccc(Cl)cc2)CCN(c2ncnc3[nH]ccc23)CC1 [Capivasertib] + CC(C)n1c(=O)n(C)c2cnc3cc(F)c(-c4ccc(OCCCN5CCCCC5)nc4)cc3c21 [AZD1390] (first compound max 10 µM, 7x7, partner max 0.3 µM) | 0.448 | 0.44 | 0.467 | 0.234 | 0.237 | 0.288 | 0.41 | 0.488 | 0.267 | 0.322 | 0.259 | 0.17 | 0.493 | 0.256 | -0.0897 | -0.0016 | -0.0281 | -0.0117 | -0.0978 | -0.0322
NC1(C(=O)N[C@@H](CCO)c2ccc(Cl)cc2)CCN(c2ncnc3[nH]ccc23)CC1 [Capivasertib] + CCN(CCO)CCCOc1ccc2c(Nc3cc(CC(=O)Nc4cccc(F)c4)[nH]n3)ncnc2c1 [AZD2811] (first compound max 10 µM, 7x7, partner max 1 µM) | 0.974 | 0.718 | 0.542 | 0.279 | 0.199 | 0.358 | 0.408 | 0.549 | 0.378 | 0.355 | 0.349 | 0.267 | 0.482 | 0.68 | -0.0298 | 0.0092 | 0.0146 | 0.0431 | -0.0614 | -0.0045
NC1(C(=O)N[C@@H](CCO)c2ccc(Cl)cc2)CCN(c2ncnc3[nH]ccc23)CC1 [Capivasertib] + COc1nnc2ccc(N3CCC(c4ccc(OCCN5CCN(C)C(=O)[C@H]5C)cc4)CC3)nn12 [AZD5153] (first compound max 10 µM, 7x7, partner max 1 µM) | 0.789 | 0.718 | 0.668 | 0.317 | 0.402 | 0.749 | 0.632 | 0.694 | 0.556 | 0.806 | 0.389 | 0.354 | 0.608 | 0.336 | 0.062 | 0.0283 | 0.0494 | 0.0423 | -0.0315 | 0.0184
NC1(C(=O)N[C@@H](CCO)c2ccc(Cl)cc2)CCN(c2ncnc3[nH]ccc23)CC1 [Capivasertib] + C[C@@H]1COCCN1C2=NC(=NC(=C2)C3(CC3)[S@](=N)(=O)C)C4=C5C=CNC5=NC=C4 [AZD6738] (first compound max 10 µM, 7x7, partner max 10 µM) | 0.876 | 0.78 | 0.678 | 0.45 | 0.277 | 0.512 | 0.844 | 0.641 | 0.947 | 0.68 | 0.721 | 0.232 | 0.539 | 0.962 | -0.0465 | -0.0381 | -0.0462 | -0.0057 | -0.0333 | 0.0028
NC1(C(=O)N[C@@H](CCO)c2ccc(Cl)cc2)CCN(c2ncnc3[nH]ccc23)CC1 [Capivasertib] + Cn1cnc2c(F)c(Nc3ccc(Br)cc3Cl)c(C(=O)NOCCO)cc21 [Selumetinib] (first compound max 10 µM, 7x7, partner max 10 µM) | 0.429 | 0.493 | 0.583 | 0.408 | 0.342 | 0.461 | 0.491 | 0.618 | 0.595 | 0.388 | 0.295 | 0.398 | 0.545 | 0.44 | 0.0496 | 0.0295 | 0.0225 | -0.019 | 0.028 | 0.0266
Cc1nc(Nc2ncc(C(=O)Nc3c(C)cccc3Cl)s2)cc(N2CCN(CCO)CC2)n1 [Dasatinib] + CC(=O)Nc1cccc(-n2c(=O)n(C3CC3)c(=O)c3c(Nc4ccc(I)cc4F)n(C)c(=O)c(C)c32)c1 [Trametinib] (first compound max 2 µM, 7x7, partner max 1 µM) | 0.24 | 0.229 | 0.784 | 0.469 | 0.375 | 0.619 | 0.397 | 0.224 | 0.624 | 0.921 | 0.347 | 0.271 | 0.493 | 0.556 | -0.0158 | 0.0074 | 0.0053 | 0.0688 | 0.0075 | 0.0824
COc1cccc2c1C(=O)c1c(O)c3c(c(O)c1C2=O)C[C@@](O)(C(=O)CO)C[C@@H]3O[C@H]1C[C@H](N)[C@H](O)[C@H](C)O1 [Doxorubicin] + Cc1cc2ncnn2cc1Nc1ncc2c(n1)n(C1CCOCC1)c(=O)n2C [AZD7648] (first compound max 1 µM, 7x7, partner max 10 µM) | 0.983 | 0.537 | 0.295 | 0.844 | 0.355 | 0.301 | 0.972 | 0.295 | 0.919 | 0.369 | 0.751 | 0.148 | 0.871 | 0.789 | 0.106 | -0.0006 | 0.0851 | 0.0202 | 0.0316 | 0.0411
COc1cc2ncnc(Nc3ccc(F)c(Cl)c3)c2cc1OCCCN1CCOCC1 [Gefitinib] + CC(C)n1c(=O)n(C)c2cnc3cc(F)c(-c4ccc(OCCCN5CCCCC5)nc4)cc3c21 [AZD1390] (first compound max 10 µM, 7x7, partner max 0.3 µM) | 0.341 | 0.207 | 0.556 | 0.297 | 0.199 | 0.738 | 0.0904 | 0.0821 | 0.436 | 0.714 | 0.133 | 0.0944 | 0.202 | 0.189 | -0.0752 | -0.048 | -0.0373 | -0.063 | -0.0574 | -0.0388
